Assay results taken from patent US20140314857A1, “FORMULATIONS FOR ENHANCED BIOAVAILABILITY OF ZANAMIVIR” (priority 2012, published 2014).
Several values for one entry are separate records, joined by “and”; a condition that tells them apart may be missing. Identical values can stand only once.

What was measured:
[1] = Intravenous and intraduodenal bioavailability of zanamivir from three formulations (Example 5); details: for C0: extrapolated to t = 0; for concentration at 0.25 hr / concentration at 0.5 hr / concentration at 0.83 hr / concentration at 1 hr / concentration at 1.5 hr / concentration at 2 hr / concentration at 0.033 hr / concentration at 0.083 hr: 1.5 mg/animal, Plasma concentration; for clearance: CL; for Vd: Vss
From the text: Male Sprague-Dawley rats (Hilltop Labs), 3 animals per treatment group, 250-350 grams in weight, were fitted with a jugular vein cannula (JVC). Animals intended for intraduodenal dosing were also fitted with one or more intraduodenal cannula (IDC) and those intended for intravenous dosing were fitted with a second JVC. Food was withheld from the animals for a minimum of twelve hours prior to test article administration and was returned approximately four hours post-dose. Water was supplied ad libitum.
Intraduodenal doses composed of 1.5 mg of zanamivir and varying amounts of an enhancer (glycerol or Capmul MCM L8) were injected directly into the duodenum via the IDC. Intravenous dosing was conducted by the injection of 1.5 mg of zanamivir in 200 μL of PBS through a JVC. For some experiments, the absorption enhancer was administered intraduodenally 2 hr prior to administering 1.5 mg of zanamivir in PBS through a second IDC. Each intraduodenal dose was followed with the introduction of a small air bubble (˜10 μL) in the cannula followed by a flush of 125 μL of PBS to ensure the dose was given in full. The volume of PBS used for cannula flush was consistent across the treatment groups. The cannula was tied to prevent the PBS remaining in the cannula from entering the duodenum.
Blood samples collected via the JVC, approximately 400 μL each, were obtained at 2 min, 5 min, 15 min, 30 min, 60 min, 90 min, and 120 min, with sodium heparin used as an anti-coagulant. Each sample was placed into a chilled tube containing the anticoagulant and kept on ice until centrifugation at 4° C., 3,000×g, for 5 min. The plasma supernatants were stored at −70° C. until LC-MS analysis.
Dosing solution samples were assayed by LC-MS/MS using electrospray ionization. The chromatographic system consisted of Perkin Elmer series 200 micropumps and autosampler equipped with a Waters Atlantic® HILIC Silica 3 μM, 2.1×50 mm column. The mass spectrometer was a PE Sciex API 4000 with electrospray interface in multiple reaction monitoring mode. […] Stock solutions (1 mg/mL zanamivir) were prepared in water. Standards (eight concentrations) were prepared in the appropriate matched matrix (HBSSg or Sprague-Dawley rat plasma containing sodium heparin) and diluted 50-fold with methanol. Experimental samples were treated identically.
Standards and samples were prepared in Sprague Dawley rat plasma containing sodium heparin as an anticoagulant. An eight-point calibration curve was prepared at concentrations of 1000, 750, 500, 250, 100, 50, 25, and 10 ng/mL by serial dilution. Standard samples were treated identically to the study samples.
Plasma samples were extracted by protein precipitation in methanol.
In this example, the bioavailability of Zanamivir was evaluated after intravenous and intraduodenal doses in male Sprague-Dawley rats. The test compound was dosed at 1.5 mg/animal through intravenous and intraduodenal routes from different formulations. Plasma levels were determined by LC-MS/MS analysis. Pharmacokinetic parameters were estimated by a non-compartmental model using WinNonlin v4.1 software.

[2] = Express IV formulation development: solubility screening in normal saline; format: physicochemical; details: saline or isotonic, thermodynamic from solid, NS, visual observation after vortexing
Procedure: The following procedure and potential dosing vehicles were evaluated, and the results are described. The target concentrations of 5 mg/mL were investigated. 1. Weigh 2-5 mg of the zanamivir into a 4 mL glass vial. 2. Add the appropriate volume of normal saline. 3. Vortex, record observations of the formulation. 4. Take an aliquot and dilute it 5-fold with NS. 5. Record observations of the formulation. 6. End of the procedure.

[3] = IV 1.5 mg/animal, Normal Saline, Ex.5, individual rats
[4] = male, Sprague-Dawley, rat, in vivo, ID 1.5 mg/animal, Capmul MCM L8 50 µL, Ex.5, mean
[5] = male, Sprague-Dawley, rat, in vivo, ID 1.5 mg/animal, Glycerol 50 µL, individual rats
[6] = male, Sprague-Dawley, rat, in vivo, ID 1.5 mg/animal, Glycerol 50 µL, mean
[7] = male, Sprague-Dawley, rat, in vivo, ID 1.5 mg/animal, PBS 50 µL, mean
[8] = male, Sprague-Dawley, rat, in vivo, ID 1.5 mg/animal, PBS 50 µL, individual rats
[9] = male, Sprague-Dawley, rat, in vivo, ID 1.5 mg/animal, PBS, 50 µL blank glycerol -2 hr, individual rats
[10] = male, Sprague-Dawley, rat, in vivo, ID 1.5 mg/animal, PBS, 50 µL blank glycerol -2 hr, mean
[11] = male, Sprague-Dawley, rat, in vivo, iv, 1.5 mg, IV 1.5 mg/animal, Normal Saline, Ex.5, individual rats
[12] = male, Sprague-Dawley, rat, in vivo, iv, 1.5 mg, IV 1.5 mg/animal, Normal Saline, Ex.5, mean
[13] = male, Sprague-Dawley, rat, in vivo, iv, IV 1.5 mg/animal, Normal Saline, Ex.5, individual rats
[14] = male, Sprague-Dawley, rat, in vivo, iv, IV 1.5 mg/animal, Normal Saline, Ex.5, mean

Structure (SMILES): CC(=O)NC1C(NC(=N)N)C=C(C(=O)O)OC1C(O)C(O)CO (centres unmarked) [Zanamivir, 5-acetamido-4-guanidino-6-(1,2,3-trihydroxypropyl)-5,6-dihydro-4H-pyran-2-carboxylic acid]
- T1/2 ([1]; ID 1.5 mg/animal, Capmul MCM L8 50 µL, Ex.5, individual rats): 27 min and 33 min
- t1/2 ([1]; ID 1.5 mg/animal, PBS, 50 µL blank glycerol -2 hr, individual rats): 39.6 min and 110 min
- Plasma concentration ([1]; IV 1.5 mg/animal, Normal Saline, Ex.5, 0.083 hr, individual rats): 17900 ng/mL and 16300 ng/mL
- C0 [1, 3]: 26943 ng/mL and 32278 ng/mL
- CL [1, 3]: 7.83 mL/min/kg and 8.67 mL/min/kg
- Vss [1, 3]: 0.26 L/kg
- t1/2 [1, 3]: 27.6 min
- half-life ([1]; male, Sprague-Dawley, rat, in vivo, 1.5 mg, T1/2, ID 1.5 mg/animal, Capmul MCM L8 50 µL, Ex.5, individual rats): 28.2 min
- half-life ([1]; male, Sprague-Dawley, rat, in vivo, 1.5 mg, T1/2, ID 1.5 mg/animal, Capmul MCM L8 50 µL, Ex.5, mean): 29.4 min
- half-life ([1]; male, Sprague-Dawley, rat, in vivo, 1.5 mg, t1/2, ID 1.5 mg/animal, Glycerol 50 µL, individual rats): 17.4 min
- half-life ([1]; male, Sprague-Dawley, rat, in vivo, 1.5 mg, t1/2, ID 1.5 mg/animal, Glycerol 50 µL, mean): 17.4 min
- half-life ([1]; male, Sprague-Dawley, rat, in vivo, 1.5 mg, t1/2, ID 1.5 mg/animal, PBS 50 µL, individual rats): 49.8 min
- half-life ([1]; male, Sprague-Dawley, rat, in vivo, 1.5 mg, t1/2, ID 1.5 mg/animal, PBS 50 µL, mean): 49.8 min
- half-life ([1]; male, Sprague-Dawley, rat, in vivo, 1.5 mg, t1/2, ID 1.5 mg/animal, PBS, 50 µL blank glycerol -2 hr, mean): 74.4 min
- Tmax ([1]; male, Sprague-Dawley, rat, in vivo, 1.5 mg, ID 1.5 mg/animal, Glycerol 50 µL, mean): 30 min
- Tmax ([1]; male, Sprague-Dawley, rat, in vivo, 1.5 mg, ID 1.5 mg/animal, PBS 50 µL, individual rats): 30 min
- Tmax ([1]; male, Sprague-Dawley, rat, in vivo, 1.5 mg, ID 1.5 mg/animal, PBS 50 µL, mean): 30 min
- Tmax ([1]; male, Sprague-Dawley, rat, in vivo, 1.5 mg, ID 1.5 mg/animal, PBS, 50 µL blank glycerol -2 hr, mean): 34.8 min
- concentration at 0.25 hr [1, 4]: 4350 ng/mL
- concentration at 0.5 hr [1, 4]: 2910 ng/mL
- concentration at 0.83 hr [1, 4]: 7230 ng/mL
- concentration at 1 hr [1, 4]: 1080 ng/mL
- concentration at 1.5 hr [1, 4]: 578 ng/mL
- concentration at 2 hr [1, 4]: 274 ng/mL
- concentration at 0.25 hr [1, 5]: 1060 ng/mL
- concentration at 0.25 hr [1, 6]: 928 ng/mL
- concentration at 0.5 hr [1, 5]: 817 ng/mL
- concentration at 0.5 hr [1, 6]: 744 ng/mL
- concentration at 0.83 hr [1, 5]: 123 ng/mL
- concentration at 0.83 hr [1, 6]: 102 ng/mL
- concentration at 1 hr [1, 6]: 415 ng/mL
- concentration at 1.5 hr [1, 5]: 123 ng/mL
- concentration at 1.5 hr [1, 6]: 93 ng/mL
- concentration at 2 hr [1, 5]: 52.1 ng/mL
- concentration at 2 hr [1, 6]: 61 ng/mL
- concentration at 0.25 hr [1, 7]: 96 ng/mL
- concentration at 0.5 hr [1, 7]: 134 ng/mL
- concentration at 0.83 hr [1, 7]: 38.7 ng/mL
- concentration at 1 hr [1, 7]: 86.4 ng/mL
- concentration at 1.5 hr [1, 8]: 59.6 ng/mL
- concentration at 1.5 hr [1, 7]: 61.1 ng/mL
- concentration at 2 hr [1, 8]: 60.2 ng/mL
- concentration at 2 hr [1, 7]: 52.1 ng/mL
- concentration at 0.25 hr [1, 9]: 60.9 ng/mL
- concentration at 0.25 hr [1, 10]: 59.3 ng/mL
- concentration at 0.5 hr [1, 10]: 66.3 ng/mL
- concentration at 0.83 hr [1, 9]: 55.3 ng/mL
- concentration at 0.83 hr [1, 10]: 52.2 ng/mL
- concentration at 1 hr [1, 10]: 63.7 ng/mL
- concentration at 1.5 hr [1, 10]: 47.5 ng/mL
- concentration at 2 hr [1, 10]: 51.4 ng/mL
- bioavailability ([1]; male, Sprague-Dawley, rat, in vivo, inherent absolute bioavailability): < 2%
- C0 ([1]; male, Sprague-Dawley, rat, in vivo, iv, 1.5 mg, C0, IV 1.5 mg/animal, Normal Saline, Ex.5, individual rats): 33400 ng/mL
- C0 ([1]; male, Sprague-Dawley, rat, in vivo, iv, 1.5 mg, C0, IV 1.5 mg/animal, Normal Saline, Ex.5, mean): 30900 ± 3440 ng/mL
- clearance [1, 11]: 8.17 mL/min/kg
- clearance [1, 12]: 8.17 mL/min/kg
- Vd [1, 11]: 0.21 L/kg
- Vd [1, 12]: 0.24 ± 0.02 L/kg
- half-life ([1]; male, Sprague-Dawley, rat, in vivo, iv, 1.5 mg, t1/2, IV 1.5 mg/animal, Normal Saline, Ex.5, individual rats): 30.6 min
- half-life ([1]; male, Sprague-Dawley, rat, in vivo, iv, 1.5 mg, t1/2, IV 1.5 mg/animal, Normal Saline, Ex.5, mean): 29.4 ± 1.8 min
- Tmax [1, 11]: 0 min
- Tmax [1, 12]: 0 min
- concentration at 0.033 hr [1, 13]: 26900 ng/mL
- concentration at 0.033 hr [1, 14]: 24800 ng/mL
- concentration at 0.083 hr ([1]; male, Sprague-Dawley, rat, in vivo, iv, IV 1.5 mg/animal, Normal Saline, Ex.5, 0.083 hr, individual rats): 19400 ng/mL
- concentration at 0.083 hr ([1]; male, Sprague-Dawley, rat, in vivo, iv, IV 1.5 mg/animal, Normal Saline, Ex.5, 0.083 hr, mean): 17900 ng/mL
- concentration at 0.25 hr [1, 13]: 11700 ng/mL
- concentration at 0.25 hr [1, 14]: 11200 ng/mL
- concentration at 0.5 hr [1, 13]: 6610 ng/mL
- concentration at 0.5 hr [1, 14]: 6450 ng/mL
- concentration at 1 hr [1, 13]: 1650 ng/mL
- concentration at 1 hr [1, 14]: 2100 ng/mL
- concentration at 1.5 hr [1, 13]: 709 ng/mL
- concentration at 1.5 hr [1, 14]: 817 ng/mL
- concentration at 2 hr [1, 13]: 423 ng/mL
- concentration at 2 hr [1, 14]: 513 ng/mL
- solubility [2]: ≥ 5000 µg/mL
